Assay: mn = molality of the nth substance listed, in mol/kg
Conditions: 100 kPa, Liquid; for electrical conductivity: Alternating current cell with electrodes; for viscosity: Falling or rolling sphere viscometry; for mass density: Vibrating tube method

CCC(=O)OCCN1CCNCC1 [2-(piperazin-1-yl)ethyl propionate] + O
Conditions	electrical conductivity [S/m]	mass density [kg/m3]	viscosity [mPa·s]
293.15 K, m1 = 0.05	0.239	1000.1	1.031
293.15 K, m1 = 0.0999	0.436	1002.01	1.081
293.15 K, m1 = 0.1996	0.762	1005.79	1.172
293.15 K, m1 = 0.3	1.028	1009.71	1.247
293.15 K, m1 = 0.3997	1.25	1013.54	1.349
293.15 K, m1 = 0.5001	1.406	1017.42	1.464
293.15 K, m1 = 0.5992	1.56	1021.32	1.581
293.15 K, m1 = 0.6993	1.68	1025.14	1.726
293.15 K, m1 = 0.7997	1.77	1029.27	1.883
293.15 K, m1 = 0.9003	1.822	1033.09	2.075
293.15 K, m1 = 0.9988	1.85	1037.12	2.263
293.15 K, m1 = 1.199	1.86	1045.08	2.77
293.15 K, m1 = 1.402	1.8	1053.12	3.472
293.15 K, m1 = 1.6	1.68	1060.85	4.338
293.15 K, m1 = 1.802	1.523	1068.6	5.445
293.15 K, m1 = 1.998	1.35	1075.94	7.039
293.15 K, m1 = 2.2	1.16	1083.11	9.362
293.15 K, m1 = 2.402	0.955	1090.06	12.4
293.15 K, m1 = 2.6	0.779	1096.1	18.48
293.15 K, m1 = 2.798	0.595	1101.66	25.9
293.15 K, m1 = 3.002	0.461	1106.84	36.82
298.15 K, m1 = 0.05	0.267	998.94	0.92
298.15 K, m1 = 0.0999	0.486	1000.81	0.962
298.15 K, m1 = 0.1996	0.848	1004.54	1.039
298.15 K, m1 = 0.3	1.15	1008.41	1.103
298.15 K, m1 = 0.3997	1.4	1012.17	1.187
298.15 K, m1 = 0.5001	1.6	1015.99	1.289
298.15 K, m1 = 0.5992	1.76	1019.83	1.389
298.15 K, m1 = 0.6993	1.89	1023.57	1.51
298.15 K, m1 = 0.7997	2	1027.65	1.644
298.15 K, m1 = 0.9003	2.07	1031.4	1.805
298.15 K, m1 = 0.9988	2.12	1035.35	1.964
298.15 K, m1 = 1.199	2.13	1043.15	2.388
298.15 K, m1 = 1.402	2.06	1051.04	2.91
298.15 K, m1 = 1.6	1.94	1058.61	3.684
298.15 K, m1 = 1.802	1.76	1066.22	4.58
298.15 K, m1 = 1.998	1.57	1073.41	5.865
298.15 K, m1 = 2.2	1.36	1080.44	7.721
298.15 K, m1 = 2.402	1.16	1087.27	10.14
298.15 K, m1 = 2.6	0.931	1093.23	14.88
298.15 K, m1 = 2.798	0.738	1098.69	20.54
298.15 K, m1 = 3.002	0.578	1103.78	28.69
303.15 K, m1 = 0.05	0.296	997.53	0.828
303.15 K, m1 = 0.0999	0.538	999.38	0.864
303.15 K, m1 = 0.1996	0.941	1003.06	0.93
303.15 K, m1 = 0.3	1.28	1006.88	0.985
303.15 K, m1 = 0.3997	1.56	1010.59	1.058
303.15 K, m1 = 0.5001	1.78	1014.36	1.145
303.15 K, m1 = 0.5992	1.97	1018.15	1.232
303.15 K, m1 = 0.6993	2.11	1021.82	1.335
303.15 K, m1 = 0.7997	2.23	1025.85	1.45
303.15 K, m1 = 0.9003	2.31	1029.53	1.587
303.15 K, m1 = 0.9988	2.37	1033.42	1.722
303.15 K, m1 = 1.199	2.4	1041.09	2.079
303.15 K, m1 = 1.402	2.35	1048.83	2.519
303.15 K, m1 = 1.6	2.22	1056.27	3.163
303.15 K, m1 = 1.802	2.04	1063.74	3.903
303.15 K, m1 = 1.998	1.828	1070.79	4.953
303.15 K, m1 = 2.2	1.59	1077.7	6.458
303.15 K, m1 = 2.402	1.37	1084.44	8.415
303.15 K, m1 = 2.6	1.109	1090.28	12.17
303.15 K, m1 = 2.798	0.878	1095.67	16.6
303.15 K, m1 = 3.002	0.722	1100.68	22.77
308.15 K, m1 = 0.05	0.327	995.91	0.75
308.15 K, m1 = 0.0999	0.595	997.73	0.783
308.15 K, m1 = 0.1996	1.042	1001.37	0.839
308.15 K, m1 = 0.3	1.416	1005.16	0.887
308.15 K, m1 = 0.3997	1.729	1008.83	0.951
308.15 K, m1 = 0.5001	1.97	1012.54	1.027
308.15 K, m1 = 0.5992	2.19	1016.24	1.102
308.15 K, m1 = 0.6993	2.36	1019.8	1.19
308.15 K, m1 = 0.7997	2.49	1023.89	1.292
308.15 K, m1 = 0.9003	2.59	1027.51	1.407
308.15 K, m1 = 0.9988	2.66	1031.34	1.524
308.15 K, m1 = 1.199	2.7	1038.89	1.83
308.15 K, m1 = 1.402	2.65	1046.51	2.203
308.15 K, m1 = 1.6	2.53	1053.82	2.745
308.15 K, m1 = 1.802	2.33	1061.17	3.361
308.15 K, m1 = 1.998	2.11	1068.11	4.23
308.15 K, m1 = 2.2	1.85	1074.9	5.468
308.15 K, m1 = 2.402	1.6	1081.54	7.079
308.15 K, m1 = 2.6	1.305	1087.28	10.12
308.15 K, m1 = 2.798	1.06	1092.61	13.61
308.15 K, m1 = 3.002	0.848	1097.53	18.37
313.15 K, m1 = 0.05	0.359	994.07	0.687
313.15 K, m1 = 0.0999	0.651	995.89	0.714
313.15 K, m1 = 0.1996	1.143	999.5	0.763
313.15 K, m1 = 0.3	1.56	1003.25	0.806
313.15 K, m1 = 0.3997	1.903	1006.85	0.861
313.15 K, m1 = 0.5001	2.18	1010.55	0.928
313.15 K, m1 = 0.5992	2.43	1014.22	0.994
313.15 K, m1 = 0.6993	2.62	1017.89	1.069
313.15 K, m1 = 0.7997	2.77	1021.76	1.159
313.15 K, m1 = 0.9003	2.88	1025.33	1.258
313.15 K, m1 = 0.9988	2.96	1029.11	1.361
313.15 K, m1 = 1.199	3.02	1036.57	1.623
313.15 K, m1 = 1.402	2.99	1044.07	1.944
313.15 K, m1 = 1.6	2.84	1051.27	2.407
313.15 K, m1 = 1.802	2.65	1058.51	2.925
313.15 K, m1 = 1.998	2.4	1065.33	3.651
313.15 K, m1 = 2.2	2.13	1072.02	4.68
313.15 K, m1 = 2.402	1.843	1078.58	6.032
313.15 K, m1 = 2.6	1.53	1084.23	8.455
313.15 K, m1 = 2.798	1.215	1089.49	11.32
313.15 K, m1 = 3.002	0.987	1094.34	15.06
318.15 K, m1 = 0.05	0.392	992.04	0.632
318.15 K, m1 = 0.0999	0.711	993.83	0.658
318.15 K, m1 = 0.1996	1.25	997.43	0.7
318.15 K, m1 = 0.3	1.707	1001.16	0.737
318.15 K, m1 = 0.3997	2.08	1004.61	0.785
318.15 K, m1 = 0.5001	2.39	1008.39	0.844
318.15 K, m1 = 0.5992	2.66	1012.05	0.902
318.15 K, m1 = 0.6993	2.86	1015.67	0.969
318.15 K, m1 = 0.7997	3.04	1019.49	1.048
318.15 K, m1 = 0.9003	3.17	1023	1.133
318.15 K, m1 = 0.9988	3.26	1026.75	1.222
318.15 K, m1 = 1.199	3.34	1034.11	1.452
318.15 K, m1 = 1.402	3.31	1041.51	1.729
318.15 K, m1 = 1.6	3.19	1048.62	2.122
318.15 K, m1 = 1.802	2.96	1055.75	2.566
318.15 K, m1 = 1.998	2.7	1062.48	3.183
318.15 K, m1 = 2.2	2.4	1069.07	4.044
318.15 K, m1 = 2.402	2.11	1075.55	5.196
318.15 K, m1 = 2.6	1.77	1081.13	7.174
318.15 K, m1 = 2.798	1.411	1086.33	9.493
318.15 K, m1 = 3.002	1.17	1091.09	12.49
323.15 K, m1 = 0.05	0.426	989.83	0.587
323.15 K, m1 = 0.0999	0.772	991.62	0.61
323.15 K, m1 = 0.1996	1.36	995.19	0.645
323.15 K, m1 = 0.3	1.85	998.9	0.678
323.15 K, m1 = 0.3997	2.27	1002.44	0.722
323.15 K, m1 = 0.5001	2.61	1006.07	0.773
323.15 K, m1 = 0.5992	2.92	1009.7	0.825
323.15 K, m1 = 0.6993	3.14	1013.4	0.883
323.15 K, m1 = 0.7997	3.34	1017.08	0.953
323.15 K, m1 = 0.9003	3.48	1020.5	1.028
323.15 K, m1 = 0.9988	3.59	1024.22	1.106
323.15 K, m1 = 1.199	3.69	1031.52	1.307
323.15 K, m1 = 1.402	3.64	1038.79	1.549
323.15 K, m1 = 1.6	3.52	1045.84	1.895
323.15 K, m1 = 1.802	3.28	1052.89	2.274
323.15 K, m1 = 1.998	3	1059.54	2.797
323.15 K, m1 = 2.2	2.69	1066.05	3.527
323.15 K, m1 = 2.402	2.38	1072.45	4.525
323.15 K, m1 = 2.6	2.01	1077.96	6.112
323.15 K, m1 = 2.798	1.628	1083.11	8.069
323.15 K, m1 = 3.002	1.341	1087.78	10.49

— the NIST ThermoML archive (doi:10.1021/je500380x)
